# Data as given in publication PMC11251039, “Harnessing cholesterol uptake of malaria parasites for therapeutic applications” (EMBO Molecular Medicine, 2024).
# “And” between values parts separate entries of the source, which are not always exact repeats. Equal entries are not always repeated. Where two headings read alike, the source gives them in different places.
# How the values were obtained:
# [1] = test system: asexual P. falciparum 3D7 wild-type parasites; test: P. falciparum asexual growth inhibition assay (SYBR Safe DNA replication); type: cell-based, Plasmodium falciparum; conditions: for P. falciparum asexual growth, percentage of control: replicate values, source data Fig. 2B; for IC90 / IC50: Plasmodium falciparum; for IC50: read-out: IC50, P. falciparum asexual growth inhibition
# In short: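 Sorbitol-synchronised ring-stage cultures at 1% parasitaemia and 1% haematocrit were exposed to 2-fold compound dilutions at 37 °C under microaerophilic conditions for 24, 48 or 72 h. Growth was read by SYBR Safe fluorescence of freeze-thaw lysates, with 200 nM chloroquine or artesunate defining background.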
# [2] = test system: P. falciparum stage III–IV gametocytes; test: P. falciparum gametocyte viability assay (MitoTracker, flow cytometry), stage III-IV; type: cell-based, Plasmodium falciparum; conditions: 48 h; for Gametocyte stage III-IV viability, percentage of control: replicate values, source data Fig. 2C
# In short: (§1)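 Magnetically enriched gametocytes, stage III-IV (day 7) or stage V (day 10), were exposed to serially diluted compounds in medium with 50 mM N-acetyl-D-glucosamine for 48 hours at 37 °C, microaerophilic. Staining with 500 nM MitoTracker Deep Red FM and Hoechst, then flow cytometry, gave percentage live versus dead gametocytes.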
# [3] = test system: P. falciparum stage V gametocytes; test: P. falciparum gametocyte viability assay (MitoTracker, flow cytometry), stage V; type: cell-based, Plasmodium falciparum; conditions: 48 h
# In short: as §1
# [4] = test system: Toxoplasma gondii tachyzoites (RH strain); test: Toxoplasma growth inhibition assay (tdTomato fluorescence, in HFF cells); type: cell-based; conditions: Toxoplasma gondii, HFF, 72 h, read-out: IC50, T. gondii tachyzoite growth inhibition
smiles,measurement,setting,value
"COc1cc(NC(C)CCCN)c2ncccc2c1 (stereo not shown) [Primaquine, primaquine, reference compound]","P. falciparum asexual growth, percentage of control","[1]; 0.048828130 uM, 24 h",103.5% and 112.3% and 122.3% and 109.6% and 103.8% and 107.6%
same,"P. falciparum asexual growth, percentage of control","[1]; 0.097656250 uM, 24 h",133.8% and 115.8% and 109.7% and 98.88% and 101.1% and 114.9%
same,"P. falciparum asexual growth, percentage of control","[1]; 0.195312500 uM, 24 h",92.88% and 92.1% and 75.42% and 87.41% and 53.27% and 109.2% and 104.7% and 89.49%
same,"P. falciparum asexual growth, percentage of control","[1]; 0.390625000 uM, 24 h",101% and 92.22% and 85.08% and 86.3% and 91.98% and 87.62% and 106.4% and 103.7% and 80.96%
same,"P. falciparum asexual growth, percentage of control","[1]; 0.781250000 uM, 24 h",87.28% and 86.95% and 87.11% and 97.7% and 104.2% and 88.59% and 104.3% and 96.91% and 94.25%
same,"P. falciparum asexual growth, percentage of control","[1]; 1.562500000 uM, 24 h",104.9% and 96.53% and 90.19% and 106.5% and 37.96% and 92.95% and 112.9% and 86.68% and 94.95%
same,"P. falciparum asexual growth, percentage of control","[1]; 3.125000000 uM, 24 h",98.46% and 91.72% and 71.7% and 85.23% and 66.97% and 105.3% and 93.44% and 88.46% and 77.37%
same,"P. falciparum asexual growth, percentage of control","[1]; 6.250000000 uM, 24 h",70.33% and 75.07% and 74.44% and 55.89% and 62.38% and 52.2% and 93.44% and 79.9% and 76.14%
same,"P. falciparum asexual growth, percentage of control","[1]; 12.500000000 uM, 24 h",59.74% and 51.28% and 54.52% and 22.36% and 27.69% and 24.85% and 101.7% and 67.6% and 71.11%
same,"P. falciparum asexual growth, percentage of control","[1]; 25.000000000 uM, 24 h",32.29% and 12.73% and 20.21% and 8.779% and -12.09% and 0.142% and 58.69% and 51.9% and 34.08%
same,"P. falciparum asexual growth, percentage of control","[1]; 50.000000000 uM, 24 h",4.003% and -4.24% and -21.02% and -13.23% and -31.85% and -34.48% and 21.18% and 8.951% and 16.84%
same,IC90,"[1]; 3D7, 24 h",41 µM
same,IC50,"[1]; 3D7, 48 h",6.5 µM
same,IC90,"[1]; 3D7, 72 h",11.4 µM
same,IC50,"[1]; 3D7, 72 h",2.6 µM
same,IC50,"[1]; 3D7, 24 h, starting at ring stages",11.5 µM
same,"Gametocyte stage III-IV viability, percentage of control","[2]; 0.781250000 uM, 0.78125 µM",95.42% and 99.73% and 94.08% and 101.8% and 105.1% and 104.7% and 100.9% (2×) and 98.19% and 96.58%
same,"Gametocyte stage III-IV viability, percentage of control","[2]; 1.562500000 uM, 1.5625 µM",95.15% (2×) and 94.61% and 99.24% and 100.4% and 98.94% and 101.3% and 96.75% and 94.78% and 98.39% and 95.38%
same,"Gametocyte stage III-IV viability, percentage of control","[2]; 3.125000000 uM, 3.125 µM",98.92% and 97.04% and 95.42% and 93.41% and 94.06% and 98.34% and 98.94% and 97.34% and 97.99% and 97.59%
same,"Gametocyte stage III-IV viability, percentage of control","[2]; 6.250000000 uM, 6.25 µM",98.92% and 103.8% and 95.15% and 101.3% and 99.57% and 96.95% and 89.77% and 92.16% and 101.4% and 98.59% and 97.59%
same,"Gametocyte stage III-IV viability, percentage of control","[2]; 12.500000000 uM, 12.5 µM",94.88% and 91.65% and 92.46% and 91.95% and 85.99% and 84% and 83.2% and 99.8% and 98.59% and 96.58%
same,"Gametocyte stage III-IV viability, percentage of control",[2]; 25.000000000 uM,79.16% and 90.84% and 90.57% and 89.5% and 87.42% and 88.71% and 66.47% and 62.28% and 62.48% and 96.99% and 92.97% and 89.75%
same,"Gametocyte stage III-IV viability, percentage of control",[2]; 50.000000000 uM,68.48% and 81.96% and 79.26% and 79.53% and 71.16% and 70.66% and 55.31% and 29.42% and 60.69% and 80.71% and 75.49% and 72.07%
same,"Gametocyte stage III-IV viability, percentage of control",[2]; 100.000000000 uM,13.88% and 70.94% and 81.83% and 86.47% and 12.9% and 10.48% and -20.11% and -20.13% and -19.64% and 38.56% and 39.79% and 36.92%
same,"Gametocyte stage III-IV viability, percentage of control",[2]; 200.000000000 uM,-26.52% and -4.004% and -1.274% and -24.53% and -24.5% and -24.31% and -27.02% and -23.13% and -23.83%
same,viability at 0.78125 µM,"[2]; Plasmodium falciparum, read-out: Gametocyte stage III-IV viability, percentage of control, 0.781250000 uM, 48 h, replicate values, source data Fig. 2C",101%
same,viability at 1.5625 µM,"[2]; Plasmodium falciparum, read-out: Gametocyte stage III-IV viability, percentage of control, 1.562500000 uM, 48 h, replicate values, source data Fig. 2C",98.8%
same,viability at 3.125 µM,"[2]; Plasmodium falciparum, read-out: Gametocyte stage III-IV viability, percentage of control, 3.125000000 uM, 48 h, replicate values, source data Fig. 2C",93.3%
same,viability at 6.25 µM,"[2]; Plasmodium falciparum, read-out: Gametocyte stage III-IV viability, percentage of control, 6.250000000 uM, 48 h, replicate values, source data Fig. 2C",94.2%
same,viability at 12.5 µM,"[2]; Plasmodium falciparum, read-out: Gametocyte stage III-IV viability, percentage of control, 12.500000000 uM, 48 h, replicate values, source data Fig. 2C",89%
same,IC50,"[2]; Plasmodium falciparum, read-out: IC50, P. falciparum gametocyte stage III-IV inhibition",60 µM
same,"Gametocyte stage V viability, percentage of control","[3]; 1.562500000 uM, replicate values, source data Fig. 2D, 1.5625 µM",97.48% and 95.25% and 88.04%
same,IC50,"[3]; Plasmodium falciparum, read-out: IC50, P. falciparum gametocyte stage V inhibition",14.8 µM
same,IC50,[4],9.7 µM
